# Assay results reported in ChEMBL document CHEMBL3885881, “DrugMatrix”.
# Organism: Rattus norvegicus
# Assay: DrugMatrix - Regimen: Daily Repeat
# Type: toxicity, organism-based, Sprague-Dawley
# Design: regimen Daily Repeat, gender Male, age 6-8 weeks
# Conditions: in vivo, po, route oral GAVAGE, vehicle 100 % WATER; for ABSOLUTE BASOPHIL / ABSOLUTE EOSINOPHIL / ABSOLUTE LYMPHOCYTE / ABSOLUTE MONOCYTE / ABSOLUTE SEGMENTED NEUTROPHIL / BASOPHIL / EOSINOPHIL / ERYTHROCYTE COUNT / HEMATOCRIT / HEMOGLOBIN / LEUKOCYTE COUNT / LYMPHOCYTE / MEAN CORPUSCULAR HEMOGLOBIN / MEAN CORPUSCULAR HEMOGLOBIN CONCENTRATION / MEAN CORPUSCULAR VOLUME / MONOCYTE / NEUTROPHIL / NUCLEATED RED BLOOD CELLS / PLATELET COUNT: tissue Blood; for ALANINE AMINOTRANSFERASE / ALKALINE PHOSPHATASE / ASPARTATE AMINOTRANSFERASE / BLOOD UREA NITROGEN / CARBON DIOXIDE / CHLORIDE / CHOLESTEROL / CREATINE PHOSPHOKINASE / CREATININE / GLUCOSE / LACTATE DEHYDROGENASE / LIPASE / PHOSPHORUS / POTASSIUM / SODIUM / TOTAL BILIRUBIN / TOTAL PROTEIN / URIC ACID: tissue Plasma
# [1] = 22 mg/kg, 120 h, dose level Low, time 5 day
# [2] = 320 mg/kg, 72 h, dose level High, time 3 day
# [3] = 320 mg/kg, 120 h, dose level High, time 5 day
compound,measurement,setting,value
COc1ccc(C(CN(C)C)C2(O)CCCCC2)cc1 (stereo unspecified) [VENLAFAXINE],ABSOLUTE BASOPHIL,[1],0 CELLS/uL
same,ABSOLUTE EOSINOPHIL,[1],0 CELLS/uL
same,ABSOLUTE LYMPHOCYTE,[1],7105.33 CELLS/uL
same,ABSOLUTE MONOCYTE,[1],102.33 CELLS/uL
same,ABSOLUTE SEGMENTED NEUTROPHIL,[1],692.33 CELLS/uL
same,BASOPHIL,[1],0%
same,EOSINOPHIL,[1],0%
same,ERYTHROCYTE COUNT,[1],5.16 x10E6/uL
same,HEMATOCRIT,[1],32.4%
same,HEMOGLOBIN,[1],12.8 G/DL
same,LEUKOCYTE COUNT,[1],7.9 x10E3/uL
same,LYMPHOCYTE,[1],90%
same,MEAN CORPUSCULAR HEMOGLOBIN,[1],24.83 pg
same,MEAN CORPUSCULAR HEMOGLOBIN CONCENTRATION,[1],39.5 G/DL
same,MEAN CORPUSCULAR VOLUME,[1],62.73 fL
same,MONOCYTE,[1],1.33%
same,NEUTROPHIL,[1],8.67%
same,NUCLEATED RED BLOOD CELLS,[1],0 /100WBC
same,PLATELET COUNT,[1],1242 x10E3/uL
same,ALANINE AMINOTRANSFERASE,[1],58.67 u/L
same,ALKALINE PHOSPHATASE,[1],353 u/L
same,ASPARTATE AMINOTRANSFERASE,[1],97.67 u/L
same,BLOOD UREA NITROGEN,[1],15 mg/dL
same,CARBON DIOXIDE,[1],29 mmol/L
same,CHLORIDE,[1],106 MEQ/L
same,CHOLESTEROL,[1],81 mg/dL
same,CREATINE PHOSPHOKINASE,[1],155 u/L
same,CREATININE,[1],0.18 mg/dL
same,GLUCOSE,[1],132.33 mg/dL
same,LACTATE DEHYDROGENASE,[1],132 u/L
same,LIPASE,[1],9.67 u/L
same,PHOSPHORUS,[1],11.27 mg/dL
same,POTASSIUM,[1],6.7 MEQ/L
same,SODIUM,[1],152.17 MEQ/L
same,TOTAL BILIRUBIN,[1],0.17 mg/dL
same,TOTAL PROTEIN,[1],6.63 G/DL
same,URIC ACID,[1],1.17 mg/dL
same,ABSOLUTE BASOPHIL,[2],0 CELLS/uL
same,ABSOLUTE EOSINOPHIL,[2],0 CELLS/uL
same,ABSOLUTE LYMPHOCYTE,[2],16169.33 CELLS/uL
same,ABSOLUTE MONOCYTE,[2],308 CELLS/uL
same,ABSOLUTE SEGMENTED NEUTROPHIL,[2],1489.33 CELLS/uL
same,BASOPHIL,[2],0%
same,EOSINOPHIL,[2],0%
same,ERYTHROCYTE COUNT,[2],5.59 x10E6/uL
same,HEMATOCRIT,[2],35.1%
same,HEMOGLOBIN,[2],13.63 G/DL
same,LEUKOCYTE COUNT,[2],17.97 x10E3/uL
same,LYMPHOCYTE,[2],89.67%
same,MEAN CORPUSCULAR HEMOGLOBIN,[2],24.4 pg
same,MEAN CORPUSCULAR HEMOGLOBIN CONCENTRATION,[2],38.83 G/DL
same,MEAN CORPUSCULAR VOLUME,[2],62.7 fL
same,MONOCYTE,[2],1.67%
same,NEUTROPHIL,[2],8.67%
same,NUCLEATED RED BLOOD CELLS,[2],0 /100WBC
same,PLATELET COUNT,[2],1276.67 x10E3/uL
same,ALANINE AMINOTRANSFERASE,[2],53.67 u/L
same,ALKALINE PHOSPHATASE,[2],355.33 u/L
same,ASPARTATE AMINOTRANSFERASE,[2],109 u/L
same,BLOOD UREA NITROGEN,[2],14.33 mg/dL
same,CARBON DIOXIDE,[2],22.33 mmol/L
same,CHLORIDE,[2],104 MEQ/L
same,CHOLESTEROL,[2],67.67 mg/dL
same,CREATINE PHOSPHOKINASE,[2],922.67 u/L
same,CREATININE,[2],0.19 mg/dL
same,GLUCOSE,[2],204 mg/dL
same,LACTATE DEHYDROGENASE,[2],452.67 u/L
same,LIPASE,[2],10 u/L
same,PHOSPHORUS,[2],13.37 mg/dL
same,POTASSIUM,[2],5.82 MEQ/L
same,SODIUM,[2],147.33 MEQ/L
same,TOTAL BILIRUBIN,[2],0.17 mg/dL
same,TOTAL PROTEIN,[2],5.87 G/DL
same,URIC ACID,[2],1.9 mg/dL
same,ABSOLUTE BASOPHIL,[3],0 CELLS/uL
same,ABSOLUTE EOSINOPHIL,[3],0 CELLS/uL
same,ABSOLUTE LYMPHOCYTE,[3],15088.33 CELLS/uL
same,ABSOLUTE MONOCYTE,[3],152.33 CELLS/uL
same,ABSOLUTE SEGMENTED NEUTROPHIL,[3],1792.67 CELLS/uL
same,BASOPHIL,[3],0%
same,EOSINOPHIL,[3],0%
same,ERYTHROCYTE COUNT,[3],5.64 x10E6/uL
same,HEMATOCRIT,[3],34.3%
same,HEMOGLOBIN,[3],13.5 G/DL
same,LEUKOCYTE COUNT,[3],17.03 x10E3/uL
same,LYMPHOCYTE,[3],88.33%
same,MEAN CORPUSCULAR HEMOGLOBIN,[3],23.93 pg
same,MEAN CORPUSCULAR HEMOGLOBIN CONCENTRATION,[3],39.37 G/DL
same,MEAN CORPUSCULAR VOLUME,[3],60.83 fL
same,MONOCYTE,[3],1%
same,NEUTROPHIL,[3],10.67%
same,NUCLEATED RED BLOOD CELLS,[3],0 /100WBC
same,PLATELET COUNT,[3],1189 x10E3/uL
same,ALANINE AMINOTRANSFERASE,[3],58.33 u/L
same,ALKALINE PHOSPHATASE,[3],429.33 u/L
same,ASPARTATE AMINOTRANSFERASE,[3],79.33 u/L
same,BLOOD UREA NITROGEN,[3],16.67 mg/dL
same,CARBON DIOXIDE,[3],25 mmol/L
same,CHLORIDE,[3],106 MEQ/L
same,CHOLESTEROL,[3],72.33 mg/dL
same,CREATINE PHOSPHOKINASE,[3],133.33 u/L
same,CREATININE,[3],0.2 mg/dL
same,GLUCOSE,[3],162.33 mg/dL
same,LACTATE DEHYDROGENASE,[3],100 u/L
same,LIPASE,[3],10 u/L
same,PHOSPHORUS,[3],13.67 mg/dL
same,POTASSIUM,[3],6.24 MEQ/L
same,SODIUM,[3],150.03 MEQ/L
same,TOTAL BILIRUBIN,[3],0.13 mg/dL
same,TOTAL PROTEIN,[3],5.73 G/DL
same,URIC ACID,[3],1.4 mg/dL
